A short description of experiment [1]: Inhibition of HCV NS3/4A protease. Further details: species or system Hepacivirus hominis.
Experiment [2] is described as follows: Inhibition of HCV NS3/4A protease using AcDTEDVVP(Nva)-O-PAP as substrate pretreated with substrate for 3 mins followed by enzyme addition measured after 60 mins by spectrophotometric method. Further details: species or system Hepacivirus hominis.

`Cc1cnc(C(=O)N[C@H]2CCCCC/C=C\[C@@H]3C[C@@]3(C(=O)NS(=O)(=O)C3CC3)NC(=O)[C@@H]3C[C@@H](Oc4nc5ccccc5c5ccccc45)CN3C2=O)cn1` [PARITAPREVIR] registered an IC50 in experiment [1] of 0.18 nM. On to `CCC[C@H](NC(=O)[C@@H]1[C@H]2CCC[C@H]2CN1C(=O)[C@@H](NC(=O)[C@@H](NC(=O)c1cnccn1)C1CCCCC1)C(C)(C)C)C(=O)C(=O)NC1CC1` [TELAPREVIR], for which it took 1030 nM to reach half-maximal inhibition in experiment [1] (IC50). Take `CC(C)(C)NC(=O)N[C@H](C(=O)N1C[C@H]2[C@@H]([C@H]1C(=O)NC(CC1CCC1)C(=O)C(N)=O)C2(C)C)C(C)(C)C` (some centres undefined) [BOCEPREVIR]: the inhibition constant Ki in experiment [2] stood at 14 nM.

In experiment [1], `C=C[C@@H]1C[C@]1(NC(=O)[C@@H]1C[C@@H](Oc2ncc(OC)c3ccc(Cl)cc23)CN1C(=O)[C@@H](NC(=O)OC(C)(C)C)C(C)(C)C)C(=O)NS(=O)(=O)C1CC1` [ASUNAPREVIR] registered a half-inhibitory concentration (IC50) of 2.6 nM.

For the origin of these results see ChEMBL document CHEMBL4020775, “QSAR studies of the bioactivity of hepatitis C virus (HCV) NS3/4A protease inhibitors by multiple linear regression (MLR) and support vector machine (SVM)” (Bioorg Med Chem Lett, 2017).
